# Measured values from US12187742B2 (XRAD Therapeutics, Inc., priority 2018, dated 2025).
# Where a name gives a salt, the structure may show the parent alone.
# Legend:
# [1] = molecular target: DNA-PK (Homo sapiens (Human), UniProt P78527); assay: DNA-PK Enzyme-Linked Immunosorbent Assay (phosphorylation of GST-p53 (1-101) peptide); assay type: biochemical; conditions: ELISA
# Procedure, shortened: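 ELISA with plate-bound GST-p53 (1-101) phosphorylated by DNA-PK (0.1 μg/mL final) with 20 μM ATP for 1 h at 25 °C. Compounds tested over 10 3-fold doses from 100 nM top final. Phospho-p53 Ser15 detected by antibody, HRP and TMB, absorbance at 450 nm.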
# [2] = molecular target: ATM (Homo sapiens (Human), UniProt Q13315); assay: ATM in Cell Western Assay (pKAP1 in etoposide-treated MCF-7 cells); assay type: cell-based
# ATM, sequence (Q13315 whole entry): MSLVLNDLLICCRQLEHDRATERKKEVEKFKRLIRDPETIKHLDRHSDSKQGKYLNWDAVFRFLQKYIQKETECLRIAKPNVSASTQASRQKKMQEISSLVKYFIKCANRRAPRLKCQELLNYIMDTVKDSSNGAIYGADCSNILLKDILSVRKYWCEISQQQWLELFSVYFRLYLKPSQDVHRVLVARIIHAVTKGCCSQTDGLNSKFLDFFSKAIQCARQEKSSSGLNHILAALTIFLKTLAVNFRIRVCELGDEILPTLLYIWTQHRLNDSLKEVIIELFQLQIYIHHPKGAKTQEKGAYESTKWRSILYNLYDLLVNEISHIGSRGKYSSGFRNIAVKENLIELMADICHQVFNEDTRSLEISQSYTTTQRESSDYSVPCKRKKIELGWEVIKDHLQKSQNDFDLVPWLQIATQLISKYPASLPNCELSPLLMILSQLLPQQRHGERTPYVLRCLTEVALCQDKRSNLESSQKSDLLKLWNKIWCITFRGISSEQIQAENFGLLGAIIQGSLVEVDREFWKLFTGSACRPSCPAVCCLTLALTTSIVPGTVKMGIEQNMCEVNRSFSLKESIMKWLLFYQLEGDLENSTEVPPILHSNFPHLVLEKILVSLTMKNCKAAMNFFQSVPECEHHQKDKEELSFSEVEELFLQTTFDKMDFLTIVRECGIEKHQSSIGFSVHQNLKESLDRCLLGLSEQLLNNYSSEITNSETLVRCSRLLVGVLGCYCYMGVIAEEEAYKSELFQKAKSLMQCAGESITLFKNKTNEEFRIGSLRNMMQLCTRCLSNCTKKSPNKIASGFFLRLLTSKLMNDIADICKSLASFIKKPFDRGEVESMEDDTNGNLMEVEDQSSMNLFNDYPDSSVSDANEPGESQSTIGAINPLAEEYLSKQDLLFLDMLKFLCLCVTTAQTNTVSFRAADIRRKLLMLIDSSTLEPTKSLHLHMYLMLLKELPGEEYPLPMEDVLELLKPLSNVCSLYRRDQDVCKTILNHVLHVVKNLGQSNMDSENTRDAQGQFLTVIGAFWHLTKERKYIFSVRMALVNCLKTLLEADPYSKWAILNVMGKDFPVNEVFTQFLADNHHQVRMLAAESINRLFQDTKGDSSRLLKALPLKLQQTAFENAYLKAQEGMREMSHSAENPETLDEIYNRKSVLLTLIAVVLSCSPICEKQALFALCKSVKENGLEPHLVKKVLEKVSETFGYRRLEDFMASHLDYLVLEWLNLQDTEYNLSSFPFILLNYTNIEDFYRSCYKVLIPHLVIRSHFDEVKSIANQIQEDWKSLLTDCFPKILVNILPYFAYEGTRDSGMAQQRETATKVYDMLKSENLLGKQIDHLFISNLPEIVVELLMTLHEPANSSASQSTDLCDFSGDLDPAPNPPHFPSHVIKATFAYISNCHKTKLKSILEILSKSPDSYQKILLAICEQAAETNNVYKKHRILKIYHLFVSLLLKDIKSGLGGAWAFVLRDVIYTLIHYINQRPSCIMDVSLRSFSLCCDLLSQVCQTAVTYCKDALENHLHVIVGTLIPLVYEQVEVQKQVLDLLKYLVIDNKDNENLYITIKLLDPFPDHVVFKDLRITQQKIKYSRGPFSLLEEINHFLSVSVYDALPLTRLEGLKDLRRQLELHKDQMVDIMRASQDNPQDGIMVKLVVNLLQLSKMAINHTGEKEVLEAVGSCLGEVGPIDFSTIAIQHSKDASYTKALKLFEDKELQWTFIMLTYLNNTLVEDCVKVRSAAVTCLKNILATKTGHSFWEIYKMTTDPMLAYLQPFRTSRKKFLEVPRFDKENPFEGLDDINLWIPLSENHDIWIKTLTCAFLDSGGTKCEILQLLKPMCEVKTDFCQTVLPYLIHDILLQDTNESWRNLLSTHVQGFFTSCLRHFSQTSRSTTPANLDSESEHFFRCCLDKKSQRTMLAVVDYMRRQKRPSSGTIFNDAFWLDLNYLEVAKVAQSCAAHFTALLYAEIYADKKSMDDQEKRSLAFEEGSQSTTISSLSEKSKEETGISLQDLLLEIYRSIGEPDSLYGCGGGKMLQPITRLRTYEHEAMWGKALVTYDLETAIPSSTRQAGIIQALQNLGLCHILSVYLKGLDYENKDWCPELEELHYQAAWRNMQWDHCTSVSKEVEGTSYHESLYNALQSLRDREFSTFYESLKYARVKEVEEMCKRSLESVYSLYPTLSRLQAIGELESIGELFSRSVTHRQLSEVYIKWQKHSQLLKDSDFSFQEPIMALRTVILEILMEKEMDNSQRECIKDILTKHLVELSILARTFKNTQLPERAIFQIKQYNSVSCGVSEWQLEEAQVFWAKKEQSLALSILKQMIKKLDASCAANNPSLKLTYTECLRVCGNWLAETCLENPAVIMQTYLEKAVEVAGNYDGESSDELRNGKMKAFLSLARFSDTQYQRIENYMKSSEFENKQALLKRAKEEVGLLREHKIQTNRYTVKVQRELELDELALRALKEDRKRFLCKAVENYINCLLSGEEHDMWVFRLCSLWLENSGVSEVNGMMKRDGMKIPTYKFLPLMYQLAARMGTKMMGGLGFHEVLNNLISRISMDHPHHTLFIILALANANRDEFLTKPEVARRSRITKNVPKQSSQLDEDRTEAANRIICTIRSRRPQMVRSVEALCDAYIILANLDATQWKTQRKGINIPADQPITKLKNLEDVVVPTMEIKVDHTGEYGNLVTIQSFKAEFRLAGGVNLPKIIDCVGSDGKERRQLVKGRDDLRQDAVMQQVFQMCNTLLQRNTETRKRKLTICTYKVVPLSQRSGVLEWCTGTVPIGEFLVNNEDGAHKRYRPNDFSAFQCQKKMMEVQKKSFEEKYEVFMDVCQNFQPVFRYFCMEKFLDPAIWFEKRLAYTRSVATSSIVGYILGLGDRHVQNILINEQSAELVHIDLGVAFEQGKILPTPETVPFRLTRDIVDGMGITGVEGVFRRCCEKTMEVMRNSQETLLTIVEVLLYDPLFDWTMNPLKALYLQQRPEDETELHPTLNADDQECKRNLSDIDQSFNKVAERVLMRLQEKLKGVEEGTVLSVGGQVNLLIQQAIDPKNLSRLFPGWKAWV
# Procedure, shortened: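 Cells received compounds in a 10-dose, 3-fold series from a 1 μM final top concentration, then 100 μM etoposide, for 1 hr at 37° C. They were then fixed with paraformaldehyde and permeabilized with 0.1% Triton X-100. After immunostaining, plates were scanned on an infrared imager.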
# [3] = MCF-7 cells, etoposide 100 μM, 1 hr, pKAP1 readout
# [4] = pKAP1 in etoposide-treated MCF-7 cells
IC50 ([1]; ATP 20 μM) [nM],"IC50 [2, 3] [nM]",IC50 ([1]; 20 μM ATP) [nM],"IC50 [2, 4] [nM]",SMILES
1 to 100,1 to 100,–,–,"CN(C)CCCOc1ncc(-c2ccc3ncc4c(c3c2)C2(CC(F)C2)C(=O)N4C)cc1NS(C)(=O)=O (centres unmarked) [Example 262, N-(2-(3-(Dimethylamino)propoxy)-5-(3-fluoro-3′-methyl-2′-oxo-2′,3′-dihydrospiro[cyclobutane-1,1′-pyrrolo[2,3-c]quinolin]-8′-yl)pyridin-3-yl)methanesulfonamide]"
–,–,1 to 100,1 to 100,"CN1CC2CN(c3ncc(-c4ccc5ncc6c(c5c4)C4(CCC4)C(=O)N6C)cc3NS(C)(=O)=O)CC2C1 (centres unmarked) [Example 350, N-(5-(3′-Methyl-2′-oxo-2′,3′-dihydrospiro[cyclobutane-1,1′-pyrrolo[2,3-c]quinolin]-8′-yl)-2-(5-methylhexahydropyrrolo[3,4-c]pyrrol-2(1H)-yl)pyridin-3-yl)methanesulfonamide formate]"
< 0.5,1 to 100,–,–,"CC(C)NCCOc1ncc(-c2ccc3ncc4c(c3c2)C2(CCCC2)C2=NCCN24)cc1NS(C)(=O)=O [Example 257, N-(5-(8′,9′-Dihydrospiro[cyclopentane-1,11′-imidazo[1′,2′:1,5]pyrrolo[2.3-c]quinolin]-2′-yl)-2-(2-(isopropylamino)ethoxy)pyridin-3-yl)methanesulfonamide]"
–,–,0.5 to 1,1 to 100,"CC(C)NCCOc1ncc(-c2cc3c(cc2F)ncc2c3[C@]3(C[C@H](Nc4ccccc4)C3)C(=O)N2C)cc1NS(C)(=O)=O [Example 459, cis-N-(5-(7′-Fluoro-3′-methyl-2′-oxo-3-(phenylamino)-2′,3′-dihydrospiro[cyclobutane-1,1′-pyrrolo[2,3-c]quinolin]-8′-yl)-2-(2-(isopropylamino)ethoxy)pyridin-3-yl)methanesulfonamide]"
< 0.5,1 to 100,–,–,"CN1CCN(c2ncc(-c3ccc4ncc5c(c4c3)C3(CCC3)C(=O)N5C)cc2NS(=O)(=O)N(C)C)CC1 [Example 230, 8′-{5-[(Dimethylsulfamoyl)amino]-6-(4-methylpiperazin-1-yl)pyridin-3-yl}-3′-methyl-2′,3′-dihydrospiro[cyclobutane-1,1′-pyrrolo[2,3-c]quinoline]-2′-one]"
–,–,1 to 100,1 to 100,"Cc1ncc(S(=O)(=O)Nc2cc(-c3ccc4ncc5c(c4c3)C3(CCC3)C(=O)N5C)cnc2N2CC(N(C)C)C2)s1 [Example 338, N-(2-(3-(Dimethylamino)azetidin-1-yl)-5-(3′-methyl-2′-oxo-2′,3′-dihydrospiro[cyclobutane-1,1′-pyrrolo[2,3-c]quinolin]-8′-yl)pyridin-3-yl)-2-methylthiazole-5-sulfonamide]"
0.5 to 1,1 to 100,–,–,"COC1CCCN(CCCOc2ncc(-c3ccc4ncc5c(c4c3)C3(CCC3)C(=O)N5C)cc2NS(C)(=O)=O)C1 (centres unmarked) [Example 280, N-(2-(3-(3-Methoxypiperidin-1-yl)propoxy)-5-(3′-methyl-2′-oxo-2′,3′-dihydrospiro[cyclobutane-1,1′-pyrrolo[2,3-c]quinolin]-8′-yl)pyridin-3-yl)methanesulfonamide]"
1 to 100,1 to 100,–,–,"CN1C(=O)C2(CCC2)c2c1cnc1ccc(-c3cnc(N4CC(N(C)C)C4)c(NS(=O)(=O)C4CC4)c3)cc21 [Example 320, N-(2-(3-(Dimethylamino)azetidin-1-yl)-5-(3′-methyl-2′-oxo-2′,3′-dihydrospiro[cyclobulane-1,1′-pyrrolo[2,3-c]quinolin]-8′-yl)pyridin-3-yl)cyclopropanesulfonamide]"
–,–,1 to 100,1 to 100,"CC(C)NCCOc1ncc(-c2cc3c(cc2F)ncc2c3[C@]3(C[C@H](c4cccnc4)C3)C(=O)N2C)cc1NS(C)(=O)=O [Example 436, cis-N-(5-(7′-Fluoro-3′-methyl-2′-oxo-3-(pyridin-3-yl)-2′,3′-dihydrospiro[cyclobutane-1,1′-pyrrolo[2,3-c]quinolin]-8′-yl)-2-(2-(isopropylamino)ethoxy)pyridin-3-yl)methanesulfonamide]"
–,–,1 to 100,1 to 100,"CO[C@H]1C[C@]2(C1)C(=O)N(C)c1cnc3cc(F)c(-c4cnc(N5CCC(N6CCCCC6)CC5)c(NS(C)(=O)=O)c4)cc3c12 [Example 391, cis-N-(2-([1,4′-Bipiperidin]-1′-yl)-5-(7′-fluoro-3-methoxy-3′-methyl-2′-oxo-2′,3′-dihydrospiro[cyclobutane-1,1′-pyrrolo[2,3-c]quinolin]-8′-yl)pyridin-3-yl)methanesulfonamide]"
1 to 100,1 to 100,–,–,"CN1C(=O)C2(CCC2)c2c1cnc1cc(F)c(-c3cnc(OCCCN4CCC(F)CC4)c(NS(C)(=O)=O)c3)cc21 [Example 297, N-(5-(7′-Fluoro-3′-methyl-2′-oxo-2′,3′-dihydrospiro[cyclobutane-1,1′-pyrrolo[2,3-c]quinolin]-8′-yl)-2-(3-(4-fluoropiperidin-1-yl)propoxy)pyridin-3-yl)methanesulfonamide hydrochloride]"
1 to 100,1 to 100,–,–,"Cc1ccc(S(=O)(=O)Nc2cc(-c3cc4c5c(cnc4cc3F)N(C)C(=O)C53CCC3)cnc2N2CC(N(C)C)C2)cc1 [Example 323, N-(2-(3-(Dimethylamino)azetidin-1-yl)-5-(7′-fluoro-3′-methyl-2′-oxo-2′,3′-dihydrospiro[cyclobutane-1,1′-pyrrolo[2,3-c]quinolin]-8′-yl)pyridin-3-yl)-4-methylbenzenesulfonamide hydrochloride]"
–,–,1 to 100,1 to 100,"CC(C)NCCOc1ncc(-c2cc3c(cc2F)ncc2c3[C@]3(C[C@H](c4cccc(Cl)c4)C3)C(=O)N2C)cc1NS(C)(=O)=O [Example 418, cis-N-(5-(3-(3-Chlorophenyl)-7′-fluoro-3′-methyl-2′-oxo-2′,3′-dihydrospiro[cyclobutane-1,1′-pyrrolo[2,3-c]quinolin]-8′-yl)-2-(2-(isopropylamino)ethoxy)pyridin-3-yl)methanesulfonamide]"

# The next lines start with the molecule.
SMILES,IC50 ([1]; ATP 20 μM) [nM],"IC50 [2, 3] [nM]",IC50 ([1]; 20 μM ATP) [nM],"IC50 [2, 4] [nM]"
"CN(C)CCCCOc1ncc(-c2ccc3ncc4c(c3c2)C2(CC2)C(=O)N4C)cc1NS(=O)(=O)C1CC1 [Example 56, N-(2-(4-(Dimethylamino)butoxy)-5-(3′-methyl-2′-oxo-2′,3′-dihydrospiro [cyclopropane-1,1′-pyrrolo[2,3-c]quinolin]-8′-yl)pyridin-3-yl)cyclopropanesulfonamide]",1 to 100,1 to 100,–,–
"CN(C)CCCOc1ccc(-c2ccc3ncc4c(c3c2)C2(CC2)C(=O)N4C)cc1NS(=O)(=O)c1cccc(Cl)c1 [Example 98, 3-Chloro-N-(2-(3-(dimethylamino)propoxy)-5-(3′-methyl-2′-oxo-2′,3′-dihydrospiro[cyclopropane-1,1′-pyrrolo[2,3-c]quinolin]-8′-yl)phenyl) benzenesulfonamide]",1 to 100,1 to 100,–,–
"CN1C(=O)C2(CCC2)c2c1cnc1ccc(-c3cnc(OCCCN4CCCCC4)c(NS(=O)(=O)c4cc(F)cc(Cl)c4)c3)cc21 [Example 196, 3-Chloro-5-fluoro-N-(5-(3′-methyl-2′-oxo-2′,3′-dihydrospiro[cyclobulane-1,1′-pyrrolo[2,3-c]quinolin]-8′-yl)-2-(3-(piperidin-1-yl)propoxy)pyridin-3-yl)benzenesulfonamide hydrochloride]",1 to 100,1 to 100,–,–
"CN(C)CCCOc1ncc(-c2ccc3ncc4c(c3c2)C2(CC2)C(=O)N4C)cc1OCc1ccccc1 [Example 59, 8′-(5-(Benzyloxy)-6-(3-(dimethylamino)propoxy)pyridin-3-yl)-3methylspiro [cycloproane-1,1′-pyrrolo [2,3-c]quinolin]-2′(3′-)-one]",1 to 100,1 to 100,–,–
"COc1ncc(-c2ccc3ncc4c(c3c2)C2(CC2)C(=O)N4C)cc1NS(=O)(=O)c1ccccc1 [Example 14, N-(2-Methoxy-5-(3′-methyl-2′-oxo-2′,3′-dihydrospiro [cyclopropane-1,1′-pyrrolo[2,3-c]quinolin]-8′-yl)pyridin-3-yl)benzenesulfonamide]",< 0.5,1 to 100,–,–
"CN(C)CCCOc1c(F)cc(-c2ccc3ncc4c(c3c2)C2(CC2)C(=O)N4C)cc1NS(=O)(=O)c1ccccc1 [Example 97, N-(2-(3-(Dimethylamino)propoxy)-3-fluoro-5-(3′-methyl-2′-oxo-2′,3′-dihydrospiro[cyclopropane-1,1′-pyrrolo[2,3-c]quinolin]-8′-yl)phenyl)benzenesulfonamide]",1 to 100,1 to 100,–,–
"CN(C)CCCOc1ncc(-c2ccc3ncc4c(c3c2)C2(CCC2)C(=O)N4C)cc1NS(=O)(=O)c1ccccc1F [Example 168, N-(2-(3-(Dimethylamino)propoxy)-5-(3′-methyl-2′-oxo-2′,3′-dihydrospiro[cyclobutane-1,1′-pyrrolo[2,3-c]quinolin]-8′-yl)pyridin-3-yl)-2-fluorobenzenesulfonamide hydrochloride]",< 0.5,0.5 to 1,–,–
"CN(C)CCCOc1ncc(-c2ccc3ncc4c(c3c2)C2(CCC2)C(=O)N4C)cc1NS(=O)(=O)c1ccc(F)cc1 [Example 158, N-(2-(3-(Dimethylamino)propoxy)-5-(3′-methyl-2-oxo-2′,3′-dihydrospiro[cyclobulane-1,1′-pyrrolo[2,3-c]quinolin]-8′-yl)pyridin-3-yl)-4-fluorobenzenesulfonamide hydrochloride]",0.5 to 1,0.5 to 1,–,–
"CN(C)CCCOc1ncc(-c2ccc3ncc4c(c3c2)C2(CCC2)C(=O)N4C)cc1NS(=O)(=O)C1COC1 [Example 205, N-(2-(3-(Dimethylamino)propoxy)-5-(3′-methyl-2′-oxo-2′,3′-dihydrospiro[cyclobutane-1,1′-pyrrolo[2,3-c]quinolin]-8′-yl)pyridin-3-yl)oxetane-3-sulfonamide]",< 0.5,1 to 100,–,–
